From ChEMBL document CHEMBL3045209, “Synthesis of a novel barbiturate from 1-chloro-2,4-dinitrobenzene as an anticonvulsant agent” (2008) come the findings set out here.

Experiment [1] has as its system Rattus norvegicus. As to the kind of experiment: Anticonvulsant activity against maximal electroshock-induced convulsion in Rattus norvegicus albino (rat) assessed as recovery from convulsion at 25 mg/kg administered 1 hr before test. In kind it is functional, organism-based. Details: dose 25 mg/kg. In general terms: The maximal electroshock test induces tonic seizures with an electrical stimulus.

Experiment [2] deals with Rattus norvegicus. As to the kind of experiment: Anticonvulsant activity against maximal electroshock-induced convulsion in Rattus norvegicus albino (rat) assessed as stupor convulsion time at 25 mg/kg administered 1 hr before test. The experiment is classed as functional.
The subject of experiment [3] is Rattus norvegicus. In words: Anticonvulsant activity against maximal electroshock-induced convulsion in Rattus norvegicus albino (rat) assessed as clonus convulsion time at 25 mg/kg administered 1 hr before test. The experiment is classed as functional.
The subject of experiment [4] is Rattus norvegicus. As to the kind of experiment: Anticonvulsant activity against maximal electroshock-induced convulsion in Rattus norvegicus albino (rat) assessed as tonic extensor convulsion time at 25 mg/kg administered 1 hr before test. The experiment is classed as functional.
The subject of experiment [5] is Rattus norvegicus. In words: Anticonvulsant activity against maximal electroshock-induced convulsion in Rattus norvegicus albino (rat) assessed as tonic flexor convulsion time at 25 mg/kg administered 1 hr before test. The experiment is classed as functional.
The subject of experiment [6] is Rattus norvegicus. In words: Anticonvulsant activity against maximal electroshock-induced convulsion in Rattus norvegicus albino (rat) assessed as recovery from convulsion at 25 to 100 mg/kg administered 1 hr before test. The experiment is classed as functional, organism-based.
For experiment [7], the system named is Rattus norvegicus. In words: Anticonvulsant activity against maximal electroshock-induced convulsion in Rattus norvegicus albino (rat) assessed as stupor convulsion time at 100 mg/kg administered 1 hr before test. The experiment is classed as functional.
The subject of experiment [8] is Rattus norvegicus. As to the kind of experiment: Anticonvulsant activity against maximal electroshock-induced convulsion in Rattus norvegicus albino (rat) assessed as clonus convulsion time at 100 mg/kg administered 1 hr before test. The experiment is classed as functional.
The test system of experiment [9] is Rattus norvegicus. In words: Anticonvulsant activity against maximal electroshock-induced convulsion in Rattus norvegicus albino (rat) assessed as tonic extensor convulsion time at 100 mg/kg administered 1 hr before test. In kind it is functional.
For experiment [10], the system named is Rattus norvegicus. In words: Anticonvulsant activity against maximal electroshock-induced convulsion in Rattus norvegicus albino (rat) assessed as tonic flexor convulsion time at 100 mg/kg administered 1 hr before test. In kind it is functional.
Experiment [11] concerns Rattus norvegicus. In words: Anticonvulsant activity against maximal electroshock-induced convulsion inRattus norvegicus albino (rat) assessed as stupor convulsion time at 50 mg/kg administered 1 hr before test. In kind it is functional.
For experiment [12], the system named is Rattus norvegicus. In words: Anticonvulsant activity against maximal electroshock-induced convulsion in Rattus norvegicus albino (rat) assessed as clonus convulsion time at 50 mg/kg administered 1 hr before test. The experiment is classed as functional.
The test system of experiment [13] is Rattus norvegicus. As to the kind of experiment: Anticonvulsant activity against maximal electroshock-induced convulsion in Rattus norvegicus albino (rat) assessed as tonic extensor convulsion time at 50 mg/kg administered 1 hr before test. In kind it is functional.
For experiment [14], the system named is Rattus norvegicus. As to the kind of experiment: Anticonvulsant activity against maximal electroshock-induced convulsion in Rattus norvegicus albino (rat) assessed as tonic flexor convulsion time at 50 mg/kg administered 1 hr before test. In kind it is functional.

Molecules are shown by their SMILES. Calls of active or inactive are those of the source. The calls are words filed in the database; no cut-off is given here.

As for `O=C1NC(=O)C(c2ccccc2)(c2ccccc2)N1` [PHENYTOIN], the result in experiment [1] was Active. The Time in experiment [2] came to 62.1 s; in experiment [3], 4.6 s; in experiment [4] it was 0 s; in experiment [5], 2.66 s.

As to `O=C1CC(=O)NC(=O)N1` [BARBITURIC ACID], in experiment [6], the outcome was Active. The Time is on record as 85.7 s in experiment [7]; 5.6 s in experiment [8]; 2 s in [9]; 2.9 s in [10]; 82.2 s in experiment [11]; 5.1 s in experiment [12]. For the same compound, the Time in experiment [13] was determined as 6.5 s; in experiment [14], 3.1 s; in experiment [2], 105.5 s; in experiment [3], 7.2 s; in [4], 13.2 s; in experiment [5] it was 4.2 s.
